The values below come from ChEMBL document CHEMBL1156431, “15-deoxyspergualin primarily targets the trafficking of apicoplast proteins in Plasmodium falciparum” (J Biol Chem, 2007).

Each structure is given as a SMILES string. The source made the active and inactive calls. The calls are words filed in the database; no cut-off is given here.

Assay [1] has as its system Plasmodium falciparum. The experiment in a line: Inhibition of fatty acid synthesis in Plasmodium falciparum FCK2 trophozoites at 10 uM. In kind it is functional, organism-based.
For assay [2], the system named is Plasmodium falciparum. The assay is described as follows: TufA expression level in Plasmodium falciparum FCK2 first asexual cycle. It is filed as functional, organism-based.
Assay [3] deals with Plasmodium falciparum. The assay is described as follows: Growth inhibition as apicoplast copy number of Plasmodium falciparum FCK2 at 100 nM by [3H]hypoxanthine uptake. In kind it is functional.
In assay [4] the test system is Plasmodium falciparum. The experiment in a line: Inhibition of fatty acid synthesis in Plasmodium falciparum FCK2 shizonts at 1 uM. In kind it is functional, organism-based.
Assay [5] in a line: Inhibition of putrescine transporter-mediated [3H]putrescine transport in human red blood cells. It is filed as cell-based.
Assay [6] deals with Plasmodium falciparum. The assay is described as follows: Inhibition of fatty acid synthesis in Plasmodium falciparum FCK2 ring stage at 1 uM. In kind it is functional, organism-based.
Assay [7] can be described thus: Inhibition of putrescine transporter-mediated [3H]putrescine transport in Plasmodium falciparum FCK2 infected human red blood cells.
The test system of assay [8] is Plasmodium falciparum. The assay is described as follows: Antimalarial activity as reduced parasitaemia after 12 hrs against Plasmodium falciparum FCK2 second asexual cycle at 1 uM by [3H]hypoxanthine uptake. It is filed as functional, organism-based.
Assay [9] deals with Plasmodium falciparum. The experiment in a line: Growth inhibition of Plasmodium falciparum FCK2 as apicoplast copy numbers at 1 uM in [3H]hypoxanthine uptake. In kind it is functional.
The nature of assay [10]: Inhibition of spermidine transporter-mediated [3H]spermidine transport in human red blood cells. In kind it is cell-based.
Assay [11] relates to Plasmodium falciparum. The assay is described as follows: Antimalarial activity against Plasmodium falciparum FCK2 infected human erythrocytes with exogenous spermidine. In kind it is functional, organism-based.
The subject of assay [12] is Plasmodium falciparum. The assay is described as follows: Actin expression level in Plasmodium falciparum FCK2. It is filed as functional, organism-based.
The test system of assay [13] is Plasmodium falciparum. The experiment in a line: Inhibition of fatty acid synthesis in late trophozoite Plasmodium falciparum FCK2 at 1 uM. It is filed as functional, organism-based.
In assay [14] the test system is Plasmodium falciparum. The experiment in a line: Antimalarial activity against Plasmodium falciparum FCK2 by [3H]hypoxanthine uptake. It is filed as functional, organism-based.
Assay [15] deals with Plasmodium falciparum. The experiment in a line: Inhibition of spermidine transporter-mediated [3H]spermidine transport in Plasmodium falciparum FCK2 infected human red blood cells at 1 mM.
In assay [16] the test system is Plasmodium falciparum. The experiment in a line: Inhibition of fatty acid synthesis in Plasmodium falciparum FCK2 trophozoites at 1 uM. It is filed as functional, organism-based.
Assay [17] has as its system Plasmodium falciparum. The experiment in a line: Inhibition of protein synthesis in Plasmodium falciparum FCK2 by [35S]methionine uptake. It is filed as functional, organism-based.
Assay [18] deals with Plasmodium falciparum. The assay is described as follows: Decreased processed NEAT protein FabG level in Plasmodium falciparum FCK2 first asexual cycle. It is filed as functional, organism-based.

In the case of `Oc1cc(Cl)ccc1Oc1ccc(Cl)cc1Cl`, the result in assay [1] was Active.
For the compound `CCC[C@@H]1C[C@@H](C(=O)N[C@@H]([C@H]2O[C@H](SC)[C@H](O)[C@@H](O)[C@H]2O)[C@H](C)Cl)N(C)C1` [CLINDAMYCIN], the result in assay [2] was Active. Besides, in [3], the Activity worked out at 0.4.
Consider `N=C(N)NCCCCCCC(=O)NC(O)C(=O)NCCCCNCCCN` (centres undefined) [GUSPERIMUS], for which the outcome in assay [4], in assay [11] and in assay [18] was Active. Further, the 50% inhibitory concentration (IC50) in assay [5] turned out to be 924 µM; in assay [7] it was 1120 µM; in assay [10], 372 µM; in assay [14], 0.148 µM; in assay [17], 443 µM. Also, the outcome in [6], in assay [2], in assay [8], in [12], in assay [13] and in assay [15] was inactive. In addition, the result in assay [16] was inactive. In [9], this compound had an Activity of 0.13.

As a reminder, the IC50 is the midpoint of a concentration-inhibition curve. Low values mean higher potency, high ones lower potency.
